Read-outs that look alike come from different tables or passages of the source.
What was measured:
[1] = system: DSS induced sub-acute colitis; format: in vivo; parameters: DAI (disease active index) / FOB (fecal occult blood) / Hist score (histological score): scale not given here; Weight / Col Length (colon length): unit not given here
Text: This invention also disclosed the used of R-salbutamol for treatment of sub acute or chronic phases of IBD. In one embodiment, IBD was induced by DSS as mentioned above, along with the treatment of R-salbutamol, at day 7th, DSS was removed and replaced with drinking water for additional 2 weeks. The disease active index (DAI) of mice was examined and evaluated periodically. The mice were scarified for pathological and histological evaluations at day of 23rd. In DSS induce IBD mice, there were significant loss of weight and fecal occult blood at day 14th and 22nd. The overall condition of colitis was severe although there was slightly improvement comparing the day 7th. The colon-rector length was significant shortened, and histological score were significant higher from control. In mice with DSS induced colitis, there were significant mononuclear leucocytes infiltration, few newly grew crypts with architectural disarray, denegation of epithelia, mucosa aberrant. There was also deep mucosal lymphocytosis, destruction of lamina propria and sometimes, transmural inflammation.
Same as example 1, except • 1), Three weeks' study with one week treatment.
DSS and all the treatment was removed and replaced with drinking water at the end of 1st week. Mice were given drink water and food ad libitum for additional 2 weeks.

[2] = system: DNCB induced allergic contact dermatitis; test: DNCB induced allergic contact dermatitis model (eczema); format: in vivo, mice
Description: Mice was shaved at abdominal area DNCB (100 μL 0.5%) is dissolved and applied to the shaved skin to induce Atopica dermatitis for 2 consecutive days. At day 8th, DNCB was applied to both inner and outer surfaces of ears to induce eczema. Treatment of R-salbutamol and indomethacin were given orally at day 1st for consecutive 8 days. The mice were scarified at day 9th for examination and evaluation. Mice were divided into four groups (n=8), namely A, Control; B. Eczema (DNCB); C. Eczema plus R-Salbutamol of 0.05, 0.1 or 0.2 mg/kg; D. Eczema plus indomethacin of 5 mg/kg. The inflammation scores were evaluated according to swelling, erythema, scratch and thickness of both ears. [table]

[3] = system: hemorrhoid inflammation symptoms; test: Hemorrhoid inflammation symptoms, oral or topical; format: in vivo; details: given either orally or topically
Text: These perianal pathological changes somewhat similar to hemorrhoid inflammation symptoms. […] This new used of beta2 agonists in treatment of hemorrhoid inflammation symptoms has never been disclosed in prior art.

[4] = system: knee joints (articular cartilage, meniscus); test: Damage of knee joints in DSS induced IBD mice; format: in vivo; details: compared with untreated DSS mice
Text: In one embodiment, in DSS induced IBD mice, there was also a damage of knee joints. The articular cartilage structure became thinner and partially destroyed. The chondrocytes were degenerated, decreased and clustered. The meniscuses were damaged and lost its structural integrity. In X-ray, the layer of articular cartilage was thinner and bone structure was decreased. […] The articular cartilage and bone structure increased toward normal.

[5] = system: IMQ-induced Psoriasis-Like Skin lesions; test: IMQ-induced psoriasis-like skin lesions; format: in vivo, mice
Description: Mice were divided into control, psoriasis and psoriasis plus treatment groups, (n=8 in each group). Psoriasis were induced by topical application of imiquimod cream (62.5 mg) on shaved dorsal skin for seven consecutive days. Vaseline was used in control group. There were four treatment groups: three doses of R-salbutamol (R-Sal) (0.5 mg, 1 mg, 2 mg/kg) and Dexamethasone (1 mg/kg) as positive control. All the treatments and same volume of saline (in control group) were administered orally. In some experiment, R-bambuterol (long-last beta2 agonist) was used as an additional treatment group (n=3). Psoriasis Area Severity Index were used for evaluation. Each of the scores for erythema, scaling and skin thickness were measured separately and then group together as a calculative score. (FIG. 2)

[6] = system: DSS induced sub-acute colitis; test: Prolonged (two weeks) treatment in DSS induced sub-acute colitis; format: in vivo, mice; details: evaluation at 23rd day, salbutamol 1 mg/kg, bambuterol 10 mg/kg
Text: Same as example 2, except. 1), Two Weeks Treatment within a Three Weeks of Study
DSS was removed from drinking water at the end of 1st week. The treatments were started at 1st day for consecutive 14 days (2 weeks). Only drinking water given for the 3rd week. The evaluation and examination were made at 23rd day as did in example 1.

[7] = system: acne, maliaria, hives and eczema; test: Topical use on acne, maliaria, hives and eczema; format: in vivo
[8] = one week treatment, evaluation at 23rd day, R-S, S-S 1 mg/kg, R-B, S-B 10 mg/kg
[9] = sub-acute or chronic DSS colitis, compared with untreated DSS mice
[10] = oral 8 days, R-Salbutamol 0.05, 0.1 or 0.2 mg/kg, indomethacin 5 mg/kg

CC(C)(C)NC[C@H](O)c1ccc(O)c(CO)c1 [R-S, R-salbutamol]
Col Length (colon length) [1, 8]: 8.2 ± 0.6 | DAI (disease active index) [1, 8]: 4 | FOB (fecal occult blood) [1, 8]: 0.5 ± 0.5 | Hist score (histological score) [1, 8]: 3 ± 0.5 | Weight [1, 8]: 114 ± 0.2 | DAI, in words [1, 9]: significant improved | histological index / histological score, in words [1, 9]: significantly ameliorated | fecal occult blood, in words ([1]; sub-acute or chronic DSS colitis, day 14th and 22nd, compared with untreated DSS mice): significantly reduced | ear skin histopathology ([2]; R-Salbutamol 0.05 mg/kg): little effects on eczema | ear skin histopathology ([2]; R-Salbutamol 0.1 mg/kg): significant reduced monocyte infiltration | ear skin histopathology ([2]; R-salbutamol 0.2 mg/kg): further reductions in monocyte infiltration and epidermal keratinization | erythema score of both ears [2, 10]: significantly alleviated or prevented | thickness score of both ears [2, 10]: significantly alleviated or prevented | eczema histology and inflammatory infiltration ([2]; oral 8 days, dose-dependent response, indomethacin 5 mg/kg): significantly improved | hemorrhoid inflammation symptoms [3]: significantly alleviated | damage of articular cartilage, meniscus and bone structure of knee joints [4]: significantly ameliorated | Psoriasis Area Severity score, high dose ([5]; R-salbutamol 2.0 mg/kg oral): best effects for all the scores | dose dependence of Psoriasis Area Severity score ([5]; R-salbutamol 0.5, 1, 2 mg/kg oral): dose-dependent response | histology of psoriasis skin lesions (HE) ([5]; dorsal skin, IMQ-induced psoriasis mice): mostly recovered | Psoriasis Area Severity score ([5]; oral, R-salbutamol 0.5, 1, 2 mg/kg, Dexamethasone 1 mg/kg, compared with psoriasis group): significantly reduced | DAI, in words [6]: return toward normal | histological score, in words [6]: return toward normal | symptoms of acne, maliaria, hives and eczema [7]: significantly alleviated

— US20210393549A1, “New use of R-enantiomer of adrenergic beta 2 receptor agonists for treatment of inflammatory bowel disease and its extra intestinal manifestations” (priority 2018, published 2021)
